The source of these data is publication PMC4333176, “Heterologous expression and biochemical characterization of a highly active and stable chloroplastic CuZn-superoxide dismutase from Pisum sativum” (BMC Biotechnology, 2015).

A word on the stoichiometry N: it is a count of units in the complex or per binding partner.

The target in series [1] is T1, PschSOD (recombinant chloroplastic CuZn-SOD) (Lathyrus oleraceus, UniProt P11964).
T1 construct: gene SODCP; mature form without chloroplast transit peptide (forward primer encodes MAAKKAVA), pET-28a His-tag kept, E. coli BL21 (DE3), Cu/Zn supplemented, ~18 kDa subunit, homodimer 36-38 kDa
T1 sequence (P11964 49-202): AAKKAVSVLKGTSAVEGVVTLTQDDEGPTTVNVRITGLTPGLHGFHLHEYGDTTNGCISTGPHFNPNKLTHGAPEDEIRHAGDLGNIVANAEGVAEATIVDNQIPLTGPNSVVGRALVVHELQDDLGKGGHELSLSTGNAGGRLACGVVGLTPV
As to the kind of experiment: pyrogallol autoxidation SOD assay, residual activity. The class given is biochemical. Particulars: superoxide from pyrogallol autoxidation; no constant.

Series [2] concerns the molecule itself. Nature of the series: SEC; analytical gel filtration on a Bio-Sil 250 column, 5 mM K-PO4 pH 7.2 with 150 mM NaCl, calibrated with standard proteins; native mass compared with subunit mass on 15% SDS-PAGE. A general note: In gel filtration, larger molecules generally elute earlier.

Consider `[O]O` [O2^∙−, superoxide anion], for which, in series [1], the “pyrogallol autoxidation SOD assay, residual activity” value was “Superoxide dismutase specific activity of PschSOD, assayed by pyrogallol method”.

B1: Pisum sativum chloroplastic CuZn-superoxide dismutase (PschSOD), recombinant, without chloroplast transit peptide (enzyme, Pisum sativum (pea), UniProt P11964 49-202, looked up)
chain: AAKKAVSVLKGTSAVEGVVTLTQDDEGPTTVNVRITGLTPGLHGFHLHEYGDTTNGCISTGPHFNPNKLTHGAPEDEIRHAGDLGNIVANAEGVAEATIVDNQIPLTGPNSVVGRALVVHELQDDLGKGGHELSLSTGNAGGRLACGVVGLTPV
notes: the forward primer (NdeI, [residues removed]) encodes M-AAKKAVA, the reverse primer ends at ...GLTPV and the stop codon; Cloned NdeI/BamHI into pET-28a; One Cu and one Zn per subunit (about 1.84 Cu and 1.6 Zn per dimer); also called Pisum sativum SOD II; pea chloroplastic SOD; source: E. coli BL21 (DE3), pET-28a, purified (Ni-NTA, desalting, buffer exchange, dialysis)
As to B1, the “stoichiometry N” value in series [2] stood at 2.
